Source: ChEMBL document CHEMBL4390702, “Discovery of novel phenoxybenzamide analogues as Raf/HDAC dual inhibitors” (Bioorg Med Chem Lett, 2019)
Active and inactive are the calls of the source. The calls are words filed in the database; no cut-off is given here.

Assays:
[1] = biological target: Serine/threonine-protein kinase B-raf (Homo sapiens, UniProt P15056, V600E); assay: Inhibition of recombinant human N-terminal GST-tagged BRAF V600E mutant catalytic domain (416 to 766 residues) expressed in baculovirus expression system using human His6-tagged MEK1 (K97R) as substrate preincubated for 20 mins followed by [33P-gamma]ATP addition and measured after 2 hrs by filter-binding assay
[2] = biological target: T1, Histone deacetylase 1 (Homo sapiens, UniProt Q13547); assay: Inhibition of recombinant full-length human C-terminal FLAG/His-tagged HDAC1 expressed in baculovirus infected Sf9 insect cells using Fluor-de-Lys as substrate measured after 10 mins by fluorescence assay
T1 sequence (Q13547 whole entry): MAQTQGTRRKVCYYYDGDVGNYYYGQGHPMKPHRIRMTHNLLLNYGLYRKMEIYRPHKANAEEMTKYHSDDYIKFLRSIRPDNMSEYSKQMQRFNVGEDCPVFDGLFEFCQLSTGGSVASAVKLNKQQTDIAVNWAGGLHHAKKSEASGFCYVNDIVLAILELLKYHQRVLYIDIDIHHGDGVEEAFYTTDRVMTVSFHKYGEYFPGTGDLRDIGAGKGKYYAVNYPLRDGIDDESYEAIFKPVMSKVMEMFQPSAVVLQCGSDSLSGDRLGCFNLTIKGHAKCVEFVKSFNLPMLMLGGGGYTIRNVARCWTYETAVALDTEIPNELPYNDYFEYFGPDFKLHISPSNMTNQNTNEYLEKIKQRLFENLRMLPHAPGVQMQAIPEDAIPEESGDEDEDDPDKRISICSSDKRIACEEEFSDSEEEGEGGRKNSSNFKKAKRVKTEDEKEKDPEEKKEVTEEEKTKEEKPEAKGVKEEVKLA

[3] = biological target: T1, Histone deacetylase 1; assay: Inhibition of recombinant full-length human C-terminal FLAG/His-tagged HDAC1 expressed in baculovirus infected Sf9 insect cells at 50 uM using Fluor-de-Lys as substrate measured after 10 mins by fluorescence assay
[4] = biological target: T1, Histone deacetylase 1; assay: Inhibition of HDAC1 (unknown origin)
[5] = biological target: T2, Protein deacetylase HDAC6 (Homo sapiens) (UniProt Q9UBN7); assay: Inhibition of recombinant human HDAC6 at 50 uM using Fluor-de-Lys as substrate measured after 10 mins by fluorescence assay
T2 sequence (whole entry): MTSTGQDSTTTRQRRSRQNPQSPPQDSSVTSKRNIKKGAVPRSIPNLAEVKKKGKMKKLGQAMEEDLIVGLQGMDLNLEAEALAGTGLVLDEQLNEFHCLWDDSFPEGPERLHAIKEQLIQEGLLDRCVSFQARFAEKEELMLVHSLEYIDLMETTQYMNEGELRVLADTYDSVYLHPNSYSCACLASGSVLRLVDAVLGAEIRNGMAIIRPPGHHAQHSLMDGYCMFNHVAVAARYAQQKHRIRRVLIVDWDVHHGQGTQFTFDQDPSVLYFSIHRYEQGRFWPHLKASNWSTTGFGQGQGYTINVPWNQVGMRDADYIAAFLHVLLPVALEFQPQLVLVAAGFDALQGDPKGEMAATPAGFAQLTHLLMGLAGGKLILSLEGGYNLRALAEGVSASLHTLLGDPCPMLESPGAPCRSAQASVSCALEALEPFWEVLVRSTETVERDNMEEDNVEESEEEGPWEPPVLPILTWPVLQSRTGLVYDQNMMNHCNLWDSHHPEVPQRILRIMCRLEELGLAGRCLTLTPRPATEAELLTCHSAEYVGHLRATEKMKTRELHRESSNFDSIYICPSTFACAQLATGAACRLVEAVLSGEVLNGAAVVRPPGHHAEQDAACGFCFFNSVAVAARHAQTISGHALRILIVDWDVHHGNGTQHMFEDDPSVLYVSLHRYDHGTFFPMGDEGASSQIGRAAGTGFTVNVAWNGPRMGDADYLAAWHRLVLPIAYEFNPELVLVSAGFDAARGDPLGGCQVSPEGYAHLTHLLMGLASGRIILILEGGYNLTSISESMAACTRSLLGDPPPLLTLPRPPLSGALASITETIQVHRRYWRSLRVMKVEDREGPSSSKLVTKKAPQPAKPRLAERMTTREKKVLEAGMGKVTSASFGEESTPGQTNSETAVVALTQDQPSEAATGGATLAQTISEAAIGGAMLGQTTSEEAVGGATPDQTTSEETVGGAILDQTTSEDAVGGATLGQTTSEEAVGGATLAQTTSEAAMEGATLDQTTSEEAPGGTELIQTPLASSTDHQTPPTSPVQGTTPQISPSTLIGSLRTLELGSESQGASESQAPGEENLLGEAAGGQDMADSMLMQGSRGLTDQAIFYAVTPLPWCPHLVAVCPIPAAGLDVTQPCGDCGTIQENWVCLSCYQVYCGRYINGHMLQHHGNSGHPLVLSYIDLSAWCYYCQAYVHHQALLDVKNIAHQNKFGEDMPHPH

[6] = biological target: T3, Histone deacetylase 8 (Homo sapiens) (UniProt Q9BY41); assay: Inhibition of recombinant full-length human C-terminal His-tagged HDAC8 expressed in baculovirus infected Sf9 insect cells at 50 uM using Fluor-de-Lys as substrate measured after 10 mins by fluorescence assay
T3 sequence (whole entry): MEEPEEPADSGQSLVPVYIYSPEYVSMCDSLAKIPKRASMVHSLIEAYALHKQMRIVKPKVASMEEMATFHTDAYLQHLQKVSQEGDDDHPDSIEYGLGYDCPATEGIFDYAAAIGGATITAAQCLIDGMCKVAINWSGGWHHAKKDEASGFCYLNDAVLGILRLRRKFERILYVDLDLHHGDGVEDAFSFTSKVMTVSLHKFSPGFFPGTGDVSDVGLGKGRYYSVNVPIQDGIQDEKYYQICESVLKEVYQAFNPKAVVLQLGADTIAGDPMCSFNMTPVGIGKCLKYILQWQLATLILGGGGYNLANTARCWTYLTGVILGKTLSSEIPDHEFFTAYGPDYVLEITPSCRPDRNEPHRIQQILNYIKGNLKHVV

[7] = test system: K562; assay: Antiproliferative activity against human K562 cells measured after 48 hrs by MTT assay; type: functional, cell-based; details: K562, 48 h
[8] = test system: MV4-11; assay: Antiproliferative activity against human MV4-11 cells measured after 48 hrs by MTT assay; type: functional, cell-based; details: MV4-11, 48 h
[9] = test system: HepG2; assay: Antiproliferative activity against human HepG2 cells measured after 48 hrs by MTT assay; type: functional, cell-based; details: HepG2, 48 h
[10] = test system: MDA-MB-468; assay: Antiproliferative activity against human MDA-MB-468 cells measured after 48 hrs by MTT assay; type: functional, cell-based; details: MDA-MB-468, 48 h
[11] = biological target: T4, Serine/threonine-protein kinase A-Raf (Homo sapiens, UniProt P10398); assay: Inhibition of human ARAF using human His6-tagged MEK1 (K97R) as substrate preincubated for 20 mins followed by [33P-gamma]ATP addition and measured after 2 hrs by filter-binding assay
T4 sequence (P10398 whole entry): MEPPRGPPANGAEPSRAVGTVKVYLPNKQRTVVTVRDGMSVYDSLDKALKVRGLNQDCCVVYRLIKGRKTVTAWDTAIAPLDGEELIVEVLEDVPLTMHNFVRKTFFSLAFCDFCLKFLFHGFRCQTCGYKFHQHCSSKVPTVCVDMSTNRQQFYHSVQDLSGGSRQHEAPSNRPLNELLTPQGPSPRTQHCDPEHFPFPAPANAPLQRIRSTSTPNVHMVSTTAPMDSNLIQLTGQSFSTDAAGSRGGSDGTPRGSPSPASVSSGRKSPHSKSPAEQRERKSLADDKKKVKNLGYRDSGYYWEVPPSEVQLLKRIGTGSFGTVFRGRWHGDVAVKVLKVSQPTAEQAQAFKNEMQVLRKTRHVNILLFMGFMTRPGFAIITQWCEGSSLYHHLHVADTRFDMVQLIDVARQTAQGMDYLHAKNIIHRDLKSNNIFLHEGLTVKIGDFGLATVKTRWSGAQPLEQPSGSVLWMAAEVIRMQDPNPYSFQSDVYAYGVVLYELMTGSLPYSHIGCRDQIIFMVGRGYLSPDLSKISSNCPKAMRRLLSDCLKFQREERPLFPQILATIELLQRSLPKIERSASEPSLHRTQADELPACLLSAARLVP

[12] = biological target: RAF proto-oncogene serine/threonine-protein kinase (Homo sapiens, UniProt P04049); assay: Inhibition of human CRAF using human His6-tagged MEK1 (K97R) as substrate preincubated for 20 mins followed by [33P-gamma]ATP addition and measured after 2 hrs by filter-binding assay
Sequence of RAF proto-oncogene serine/threonine-protein kinase (P04049 whole entry): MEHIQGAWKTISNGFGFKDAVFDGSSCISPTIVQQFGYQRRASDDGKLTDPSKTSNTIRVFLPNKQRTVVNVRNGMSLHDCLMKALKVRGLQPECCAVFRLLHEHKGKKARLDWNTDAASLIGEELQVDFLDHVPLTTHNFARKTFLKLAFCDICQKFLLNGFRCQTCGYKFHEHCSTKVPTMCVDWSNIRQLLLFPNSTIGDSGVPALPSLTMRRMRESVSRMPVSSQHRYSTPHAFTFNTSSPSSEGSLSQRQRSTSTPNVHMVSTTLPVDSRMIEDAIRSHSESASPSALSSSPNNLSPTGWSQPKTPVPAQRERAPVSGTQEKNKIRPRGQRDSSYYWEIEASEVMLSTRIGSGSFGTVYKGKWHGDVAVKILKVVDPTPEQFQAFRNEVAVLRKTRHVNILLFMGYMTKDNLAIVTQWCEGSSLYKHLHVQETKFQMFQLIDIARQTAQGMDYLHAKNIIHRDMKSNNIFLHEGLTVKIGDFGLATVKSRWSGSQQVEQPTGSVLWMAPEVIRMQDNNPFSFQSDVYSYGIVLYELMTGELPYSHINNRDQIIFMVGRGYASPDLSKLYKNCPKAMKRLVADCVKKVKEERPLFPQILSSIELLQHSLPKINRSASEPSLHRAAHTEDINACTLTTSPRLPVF

Compound | IC50 [1] | IC50 [2] | inhibition [3] | IC50 [4] | inhibition [5] | inhibition [6] | IC50 [7] | IC50 [8] | IC50 [9] | IC50 [10] | IC50 [11] | IC50 [12]
CCNC(=O)c1cc(Oc2ccc(NC(=O)c3ccc(Cl)c(C(F)(F)F)c3)cc2)ccc1N | 0.354 µM | 1.62 µM |  |  |  |  |  |  |  |  |  | 
CN(C)C(=O)c1cc(Oc2ccc(NC(=O)c3ccc(Cl)c(C(F)(F)F)c3)cc2)ccc1N | 4.17 µM |  | inactive |  |  |  |  |  |  |  |  | 
CNC(=O)c1cc(Oc2ccc(NC(=O)c3cccnc3)cc2)ccc1N | 1.78 µM | 5.23 µM |  | 5.23 µM |  |  |  |  |  |  |  | 
Nc1cc(F)ccc1NC(=O)c1ccc(CNC(=O)/C=C/c2cccnc2)cc1 [TUCIDINOSTAT] |  |  |  |  | inactive | inactive | 0.87 µM | 3.73 µM | 4.89 µM | 2.65 µM |  | 
CNC(=O)c1cc(Oc2ccc(NC(=O)c3ccc(OC)cc3)cc2)ccc1N | 0.187 µM | 2.46 µM |  |  | inactive | inactive | 5.22 µM | 1.87 µM | 6.65 µM | 0.95 µM | 0.211 µM | 0.652 µM
CNC(=O)c1cc(Oc2ccc(NC(=O)c3ccc(N)cc3)cc2)ccc1N | 0.942 µM | 2.27 µM |  |  |  |  |  |  |  |  |  | 
CNC(=O)c1cc(Oc2ccc(NC(=O)c3ccc(Cl)c(C(F)(F)F)c3)cc2)ccc1N | 0.073 µM | 1.17 µM |  |  | inactive | inactive | 2.73 µM | 1.12 µM | 1.33 µM | 0.57 µM | 0.183 µM | 0.092 µM
CNC(=O)c1cc(Oc2ccc(NC(=O)c3ccc4ccccc4c3)cc2)ccc1N | 0.237 µM | 8.21 µM |  |  |  |  | 10.3 µM | 8.21 µM | 7.28 µM | 3.91 µM |  | 
CNC(=O)c1cc(Oc2ccc(NC(=O)Nc3ccc(Cl)c(C(F)(F)F)c3)cc2)ccn1 [SORAFENIB] |  |  |  |  |  |  | 17.2 µM | 0.51 µM | 3.04 µM | 12.2 µM |  | 
CNC(=O)c1cc(Oc2ccc(NC(=O)c3cccc(O)c3)cc2)ccc1N | 4.06 µM | 1.95 µM |  |  |  |  |  |  |  |  |  | 
CNC(=O)c1cc(Oc2ccc(NC(=O)c3ccccc3)cc2)ccc1N | 0.342 µM | 6.19 µM |  |  |  |  |  |  |  |  |  | 
NC(=O)c1cc(Oc2ccc(NC(=O)c3ccc(Cl)c(C(F)(F)F)c3)cc2)ccc1N | 0.688 µM | 2.79 µM |  |  |  |  |  |  |  |  |  | 
CNC(=O)c1cc(Oc2ccc(NC(=O)c3ccc(F)cc3)cc2)ccc1N | 0.303 µM | 7.65 µM |  |  |  |  | 6.43 µM | 5.32 µM | 7.56 µM | 5.76 µM |  | 
CNC(=O)c1cc(Oc2ccc(NC(=O)c3ccc(Cl)cc3)cc2)ccc1N | 0.165 µM | 7.11 µM |  |  |  |  | 7.12 µM | 9.23 µM | 5.13 µM | 4.24 µM |  | 
CNC(=O)c1cc(Oc2ccc(NC(=O)c3cccc(N)c3)cc2)ccc1N | 3.26 µM | 1.03 µM |  |  |  |  |  |  |  |  |  | 
